Experimental data reported in US11572590B2, “Methods for evaluating tumor cell spheroids using 3D microfluidic cell culture device” (Dana-Farber Cancer Institute, Inc., priority 2017, dated 2023).
Read-outs that look alike come from different tables or passages of the source.

How the values were obtained:
Assay in all cases: SelectScreen Kinase Profiling, single point inhibition and IC50 for off-target kinases
Type in all cases: biochemical
off-target kinases [1] = molecular target: off-target kinases (Homo sapiens, UniProt P10721, D816V); details: KIT D816V, LanthaScreen Binding
Chain of off-target kinases (Homo sapiens, UniProt P10721, D816V) (P10721 26-976 D816V): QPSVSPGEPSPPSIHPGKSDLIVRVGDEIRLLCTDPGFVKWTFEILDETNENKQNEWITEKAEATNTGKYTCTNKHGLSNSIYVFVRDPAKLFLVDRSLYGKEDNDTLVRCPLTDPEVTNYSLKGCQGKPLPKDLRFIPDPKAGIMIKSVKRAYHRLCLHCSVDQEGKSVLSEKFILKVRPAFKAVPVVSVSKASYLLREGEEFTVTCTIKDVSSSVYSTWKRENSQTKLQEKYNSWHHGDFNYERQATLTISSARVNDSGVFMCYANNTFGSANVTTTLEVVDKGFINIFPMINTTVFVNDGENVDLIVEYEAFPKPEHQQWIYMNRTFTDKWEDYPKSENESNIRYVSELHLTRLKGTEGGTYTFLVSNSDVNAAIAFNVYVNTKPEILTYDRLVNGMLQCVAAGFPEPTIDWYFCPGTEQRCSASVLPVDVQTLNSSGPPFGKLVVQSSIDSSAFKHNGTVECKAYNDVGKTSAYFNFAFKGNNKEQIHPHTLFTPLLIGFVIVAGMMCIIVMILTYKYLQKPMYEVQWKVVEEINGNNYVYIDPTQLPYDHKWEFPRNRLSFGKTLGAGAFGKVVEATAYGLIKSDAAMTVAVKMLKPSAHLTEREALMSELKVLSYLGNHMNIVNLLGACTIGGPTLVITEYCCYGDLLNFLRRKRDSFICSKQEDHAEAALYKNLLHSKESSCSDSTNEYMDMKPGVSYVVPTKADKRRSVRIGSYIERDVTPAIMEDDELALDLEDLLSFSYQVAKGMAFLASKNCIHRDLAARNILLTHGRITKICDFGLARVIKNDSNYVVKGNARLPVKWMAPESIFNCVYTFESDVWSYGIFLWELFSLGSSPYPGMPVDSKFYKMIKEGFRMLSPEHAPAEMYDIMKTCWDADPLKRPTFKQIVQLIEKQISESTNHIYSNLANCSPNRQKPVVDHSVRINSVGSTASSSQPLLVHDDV

off-target kinases [2] = molecular target: T1, off-target kinases (Homo sapiens, UniProt P35626); details: ADRBK2 (GRK3), ZLYTE, ATP Km app
T1 sequence (P35626 1-688): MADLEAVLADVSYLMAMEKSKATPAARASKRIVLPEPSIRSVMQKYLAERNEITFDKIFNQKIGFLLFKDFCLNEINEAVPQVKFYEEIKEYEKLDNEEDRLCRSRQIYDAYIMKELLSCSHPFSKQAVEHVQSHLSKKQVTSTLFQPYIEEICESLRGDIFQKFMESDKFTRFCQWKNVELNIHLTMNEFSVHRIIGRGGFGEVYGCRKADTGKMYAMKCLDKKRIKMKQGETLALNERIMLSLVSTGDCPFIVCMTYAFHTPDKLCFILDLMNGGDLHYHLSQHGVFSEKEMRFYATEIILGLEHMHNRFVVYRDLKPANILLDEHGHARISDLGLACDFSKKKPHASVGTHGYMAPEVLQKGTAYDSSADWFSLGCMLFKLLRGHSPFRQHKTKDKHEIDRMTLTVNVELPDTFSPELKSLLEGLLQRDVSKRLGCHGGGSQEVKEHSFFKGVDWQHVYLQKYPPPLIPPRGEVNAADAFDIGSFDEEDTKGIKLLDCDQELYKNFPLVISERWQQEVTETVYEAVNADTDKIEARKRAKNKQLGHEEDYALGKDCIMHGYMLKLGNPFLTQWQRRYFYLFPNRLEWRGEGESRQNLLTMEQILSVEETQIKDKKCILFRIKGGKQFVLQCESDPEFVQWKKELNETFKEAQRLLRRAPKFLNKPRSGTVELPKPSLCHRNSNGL

off-target kinases [3] = molecular target: off-target kinases (Homo sapiens, UniProt P36888, D835Y); details: FLT3 D835Y, ATP Km app, ZLYTE
off-target kinases [4] = molecular target: off-target kinases (Homo sapiens, UniProt P54756); details: EPHA5, ZLYTE, ATP Km app
Chain of off-target kinases (Homo sapiens, UniProt P54756) (P54756 25-1037): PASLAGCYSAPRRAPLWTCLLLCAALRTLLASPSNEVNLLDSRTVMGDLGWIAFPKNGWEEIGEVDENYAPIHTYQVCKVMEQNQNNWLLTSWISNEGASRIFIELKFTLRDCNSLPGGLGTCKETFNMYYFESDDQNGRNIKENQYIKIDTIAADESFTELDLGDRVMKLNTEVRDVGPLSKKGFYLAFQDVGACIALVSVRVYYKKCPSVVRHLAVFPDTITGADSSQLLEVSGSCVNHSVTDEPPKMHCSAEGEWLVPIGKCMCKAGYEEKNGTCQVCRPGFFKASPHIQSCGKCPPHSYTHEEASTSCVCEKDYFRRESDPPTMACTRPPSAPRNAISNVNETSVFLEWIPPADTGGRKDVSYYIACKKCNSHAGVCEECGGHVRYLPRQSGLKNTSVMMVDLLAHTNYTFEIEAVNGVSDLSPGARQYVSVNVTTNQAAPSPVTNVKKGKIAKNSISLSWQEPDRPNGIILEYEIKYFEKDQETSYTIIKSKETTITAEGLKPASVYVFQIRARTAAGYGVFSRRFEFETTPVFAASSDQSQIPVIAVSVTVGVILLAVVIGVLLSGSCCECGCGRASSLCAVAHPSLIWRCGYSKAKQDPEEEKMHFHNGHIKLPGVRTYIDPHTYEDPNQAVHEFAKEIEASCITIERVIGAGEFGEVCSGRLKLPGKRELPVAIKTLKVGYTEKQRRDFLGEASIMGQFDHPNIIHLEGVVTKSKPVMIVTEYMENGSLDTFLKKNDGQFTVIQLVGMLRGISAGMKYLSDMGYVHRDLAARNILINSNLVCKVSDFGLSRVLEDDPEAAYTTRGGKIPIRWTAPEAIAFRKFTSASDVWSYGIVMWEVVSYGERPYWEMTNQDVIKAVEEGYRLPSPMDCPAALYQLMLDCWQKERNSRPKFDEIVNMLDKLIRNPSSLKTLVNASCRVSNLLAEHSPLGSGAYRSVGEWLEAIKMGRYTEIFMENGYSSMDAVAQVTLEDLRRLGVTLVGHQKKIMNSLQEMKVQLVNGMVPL

off-target kinases [5] = molecular target: off-target kinases (Homo sapiens, UniProt Q14289); details: PTK2B (FAK2), ZLYTE, ATP Km app
Chain of off-target kinases (Homo sapiens, UniProt Q14289) (Q14289 whole entry): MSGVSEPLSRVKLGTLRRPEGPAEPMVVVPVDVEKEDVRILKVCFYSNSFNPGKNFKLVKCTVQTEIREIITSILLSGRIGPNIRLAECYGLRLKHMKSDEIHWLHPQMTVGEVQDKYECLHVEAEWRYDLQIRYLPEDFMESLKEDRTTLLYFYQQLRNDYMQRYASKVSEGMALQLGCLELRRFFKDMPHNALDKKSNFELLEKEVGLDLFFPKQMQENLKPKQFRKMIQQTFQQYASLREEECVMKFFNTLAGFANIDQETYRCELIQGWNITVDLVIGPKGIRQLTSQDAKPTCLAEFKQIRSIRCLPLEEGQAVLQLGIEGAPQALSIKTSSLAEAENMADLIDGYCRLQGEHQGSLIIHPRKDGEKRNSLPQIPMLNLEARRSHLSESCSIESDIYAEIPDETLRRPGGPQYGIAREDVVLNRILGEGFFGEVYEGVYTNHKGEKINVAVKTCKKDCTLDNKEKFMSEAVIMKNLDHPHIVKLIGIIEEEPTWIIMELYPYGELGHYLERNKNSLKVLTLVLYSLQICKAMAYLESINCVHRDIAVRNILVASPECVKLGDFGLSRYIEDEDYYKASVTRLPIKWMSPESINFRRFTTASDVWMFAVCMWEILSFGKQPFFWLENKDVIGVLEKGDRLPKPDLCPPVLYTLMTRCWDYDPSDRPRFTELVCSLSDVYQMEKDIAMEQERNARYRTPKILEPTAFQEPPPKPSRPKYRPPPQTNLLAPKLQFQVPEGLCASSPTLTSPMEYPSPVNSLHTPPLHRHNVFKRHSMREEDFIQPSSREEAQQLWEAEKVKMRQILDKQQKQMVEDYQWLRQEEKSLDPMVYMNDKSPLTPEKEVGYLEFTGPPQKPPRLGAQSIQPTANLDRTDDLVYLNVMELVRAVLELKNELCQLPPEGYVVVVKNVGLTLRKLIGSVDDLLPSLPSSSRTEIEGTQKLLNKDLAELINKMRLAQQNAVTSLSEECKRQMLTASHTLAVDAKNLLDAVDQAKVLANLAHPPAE

off-target kinases [6] = molecular target: off-target kinases (Homo sapiens, UniProt Q16512); details: PKN1 (PRK1); Cmpd1 1000 μM; ATP Km app; ZLYTE
Chain of off-target kinases (Homo sapiens, UniProt Q16512) (Q16512 whole entry): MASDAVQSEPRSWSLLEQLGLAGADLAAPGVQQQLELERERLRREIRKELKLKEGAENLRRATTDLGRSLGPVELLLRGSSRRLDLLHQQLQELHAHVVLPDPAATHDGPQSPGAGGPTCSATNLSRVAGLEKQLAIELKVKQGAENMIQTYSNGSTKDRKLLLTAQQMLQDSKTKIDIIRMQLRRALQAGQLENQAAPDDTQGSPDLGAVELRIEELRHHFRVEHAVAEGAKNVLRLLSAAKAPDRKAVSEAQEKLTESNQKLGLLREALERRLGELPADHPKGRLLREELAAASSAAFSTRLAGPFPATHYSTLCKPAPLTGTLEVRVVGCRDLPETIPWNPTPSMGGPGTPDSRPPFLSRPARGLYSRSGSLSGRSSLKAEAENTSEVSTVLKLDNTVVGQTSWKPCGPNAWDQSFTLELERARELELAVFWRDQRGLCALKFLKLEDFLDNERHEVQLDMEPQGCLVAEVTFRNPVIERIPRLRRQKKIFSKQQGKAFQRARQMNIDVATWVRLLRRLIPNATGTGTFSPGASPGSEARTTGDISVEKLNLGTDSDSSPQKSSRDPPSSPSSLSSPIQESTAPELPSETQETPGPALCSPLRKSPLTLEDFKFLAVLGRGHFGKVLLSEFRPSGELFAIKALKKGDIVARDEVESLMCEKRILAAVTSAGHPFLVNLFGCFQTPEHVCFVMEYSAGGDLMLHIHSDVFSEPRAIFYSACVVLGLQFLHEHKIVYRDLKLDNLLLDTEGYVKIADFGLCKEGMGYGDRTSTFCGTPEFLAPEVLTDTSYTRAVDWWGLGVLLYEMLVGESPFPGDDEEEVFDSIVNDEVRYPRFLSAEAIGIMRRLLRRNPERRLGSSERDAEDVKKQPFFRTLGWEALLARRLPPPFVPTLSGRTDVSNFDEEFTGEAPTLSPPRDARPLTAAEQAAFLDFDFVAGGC

off-target kinases [7] = molecular target: off-target kinases (Homo sapiens, UniProt Q9Y243); details: AKT3 (PKB gamma), ZLYTE, ATP Km app
Chain of off-target kinases (Homo sapiens, UniProt Q9Y243) (Q9Y243 whole entry): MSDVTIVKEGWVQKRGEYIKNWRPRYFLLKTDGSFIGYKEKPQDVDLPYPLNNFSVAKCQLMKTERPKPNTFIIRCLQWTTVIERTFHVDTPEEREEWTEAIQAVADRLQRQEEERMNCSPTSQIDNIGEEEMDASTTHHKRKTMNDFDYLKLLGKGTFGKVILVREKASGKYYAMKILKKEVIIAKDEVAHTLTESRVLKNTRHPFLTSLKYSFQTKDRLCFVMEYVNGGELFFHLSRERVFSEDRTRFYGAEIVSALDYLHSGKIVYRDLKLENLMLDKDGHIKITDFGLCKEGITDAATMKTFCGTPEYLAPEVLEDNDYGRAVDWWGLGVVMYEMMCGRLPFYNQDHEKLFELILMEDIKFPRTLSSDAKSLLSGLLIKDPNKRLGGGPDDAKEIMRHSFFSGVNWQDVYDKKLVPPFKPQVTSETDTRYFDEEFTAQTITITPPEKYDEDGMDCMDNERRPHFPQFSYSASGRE

With N#Cc1cc(-c2ncnc(Nc3ccc(N4CCN(C5COC5)CC4)cc3)n2)ccc1OC1CCOCC1 [Compound 1, 5-(4-((4-(4-(oxetan-3-yl)piperazin-1-yl)phenyl)amino)-1,3,5-triazin-2-yl)-2-((tetrahydro-2H-pyran-4-yl)oxy)benzonitrile] the inhibition (off-target kinases [1]; read-out: % Inhibition 1) was 83%, the inhibition (off-target kinases [1]; read-out: % Inhibition 2) was 83% and the inhibition (off-target kinases [1]; read-out: % Inhibition Avg) was 83%. For the same compound, the inhibition (off-target kinases [2]; read-out: % Inhibition 1) was 6%, the inhibition (off-target kinases [2]; read-out: % Inhibition 2) was 4% and the inhibition (off-target kinases [2]; read-out: % Inhibition Avg) was 5%. The inhibition (off-target kinases [3]; read-out: % Inhibition 1) was 83%, the inhibition (off-target kinases [3]; read-out: % Inhibition 2) was 81% and the inhibition (off-target kinases [3]; read-out: % Inhibition Avg) was 82%. It also gave an inhibition (off-target kinases [4]; read-out: % Inhibition 1) of 3%, an inhibition (off-target kinases [4]; read-out: % Inhibition 2) of 4% and an inhibition (off-target kinases [4]; read-out: % Inhibition Avg) of 3%. It also gave an inhibition (off-target kinases [5]; read-out: % Inhibition 1) of 8%, an inhibition (off-target kinases [5]; read-out: % Inhibition 2) of 4% and an inhibition (off-target kinases [5]; read-out: % Inhibition Avg) of 6%. The “% Inhibition 1” value (off-target kinases [6]) was −6%, the “% Inhibition 2” value (off-target kinases [6]) was −4% and the “% Inhibition Avg” value (off-target kinases [6]) was −5%. It also gave an inhibition (off-target kinases [7]; read-out: % Inhibition 1) of 3%, an inhibition (off-target kinases [7]; read-out: % Inhibition 2) of 1% and an inhibition (off-target kinases [7]; read-out: % Inhibition Avg) of 2%.
